Measured values published in publication PMC6010091, “Inhibition of the β-carbonic anhydrase from the dandruff-producing fungus Malassezia globosa with monothiocarbamates” (Journal of Enzyme Inhibition and Medicinal Chemistry, 2017).

Target: T1, MgCA (Malassezia globosa, UniProt A8Q1N3)
T1 construct: gene MGL_1814; recombinant, purified; dimer in the homology model; Zn ligands C47, H103, C106
T1 sequence (A8Q1N3 1-241): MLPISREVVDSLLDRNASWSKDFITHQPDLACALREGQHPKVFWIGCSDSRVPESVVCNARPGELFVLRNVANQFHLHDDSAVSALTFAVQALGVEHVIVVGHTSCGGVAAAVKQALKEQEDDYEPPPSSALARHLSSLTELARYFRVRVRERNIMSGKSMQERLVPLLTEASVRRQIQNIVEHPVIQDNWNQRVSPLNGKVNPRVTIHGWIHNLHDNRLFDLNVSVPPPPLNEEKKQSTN
Test: stopped-flow CO2 hydration assay, Cheng-Prusoff
Type: biochemical

Question: How did the Ki turn out when `O=C(S)N1CCN(c2ccc(F)cc2)CC1` [compound 12, 12] was run?
Answer: Its Ki is 8.33 µM.

Question: `S=C(S)SCc1ccccc1` [compound 16, 16] was tested. Which Ki did it give?
Answer: The Ki was 8.12 µM.

Question: `CN(Cc1ccccc1)C(=O)S` [compound 9, 9] was tested. Which Ki did it give?
Answer: Its Ki is 7.61 µM.

Question: For `O=C(S)N1CCN(c2cccc(Cl)c2)CC1` [compound 14, 14], which Ki is on record?
Answer: Its Ki is 15.9 µM.

Question: Which Ki does the source give for `CC(C)CN(CC(C)C)C(=O)S` [compound 6, 6] here?
Answer: Its Ki is 8.61 µM.

Question: `O=C(S)N1CCN(c2ccc(C(F)(F)F)cc2)CC1` [compound 13, 13] was tested. Which Ki did it give?
Answer: The Ki was 4.22 µM.

Question: How did the Ki turn out when `O=C(CN1CCN(C(=O)S)CC1)NC1CCCCC1` [compound 15, 15] was run?
Answer: The Ki was 6.13 µM.

Question: How did the Ki turn out when `S=C(S)OCCc1ccccc1` [compound 17, 17] was run?
Answer: The Ki was 16.2 µM.

Question: Which Ki does the source give for `CCCN(CCC)C(=O)S` [compound 4, 4] here?
Answer: Its Ki is 1.85 µM.

Question: `O=C(S)N1CCOCC1` [compound 10, 10] was tested. Which Ki did it give?
Answer: Its Ki is 7.65 µM.

Question: How did the Ki turn out when `CCCCN(CC)C(=O)S` [compound 7, 7] was run?
Answer: Its Ki is 5.26 µM.

Question: With `CCCCN(CCCC)C(=O)S` [compound 5, 5] as the molecule, how does the Ki read?
Answer: The Ki was 7.52 µM.

Question: With `O=C(S)N1CCNCC1` [compound 11, 11] as the molecule, how does the Ki read?
Answer: The Ki was 7.41 µM.
